From patent US6410792B1, “Amide derivatives and methods for using the same as selective neuropeptide Y receptor antagonists” (Bayer Corporation, priority 1997, dated 2002)
Read-outs that look alike come from different tables or passages of the source.

Experiments:
Y2 receptor = target: T1, Y2 receptor (Homo sapiens, UniProt P49146); test: Y2 receptor binding assay ([125I]PYY, membrane protein); conditions: [125I]PYY binding, membrane protein; read-out: hNPY2 IC50
T1 sequence (P49146 1-381): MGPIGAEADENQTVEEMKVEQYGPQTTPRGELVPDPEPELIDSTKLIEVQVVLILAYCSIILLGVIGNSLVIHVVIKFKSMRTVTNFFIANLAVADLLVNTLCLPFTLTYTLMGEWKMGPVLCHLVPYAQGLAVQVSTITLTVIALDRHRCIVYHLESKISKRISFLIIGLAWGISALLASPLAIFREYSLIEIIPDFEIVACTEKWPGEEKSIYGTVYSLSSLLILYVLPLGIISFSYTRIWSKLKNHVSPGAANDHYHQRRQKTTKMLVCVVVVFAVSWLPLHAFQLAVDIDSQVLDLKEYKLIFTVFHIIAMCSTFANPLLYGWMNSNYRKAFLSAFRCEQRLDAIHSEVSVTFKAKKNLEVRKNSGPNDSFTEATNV
Experimental: B. Human Y2 and Y4/PP1 Receptor Binding Assays
Binding assays were performed on GF/C Millipore 96-well plates pretreated with 0.02% polyethylenimine. The binding buffer for rat Y2 binding is Krebs-Ringer bicarbonate (pH 7.4) containing 0.01% BSA and 0.005% bacitracin. Samples consist of membrane protein, 25 pM [1251]PYY and drug dilution. Nonspecific binding is defined by 1 μM NPY. The binding buffer for human Y4/PP1 binding consists of 137 mM NaCl, 5.4 mM KCl, 0.44 mM KH2PO4, 1.26 mM CaCl2, 0.81 mM MgSO4, 20 mM HEPES, 1 mM dithiothreitol, 0.1% bacitracin, 100 mg/l streptomycin sulfate, 1 mg/l aprotinin, 10 mg/ml soybean trypsin inhibitor and 0.3% BSA, pH 7.4. Samples consist of membrane protein, 50 pM human [1251]human PP (hPP: NEN DuPont, Boston, Mass.) and drug dilution. 1 μM hPP is used to define nonspecific binding.
After a 2 hour incubation at room temperature with constant mixing, the samples are aspirated on a vacuum manifold, and rinsed with ice-cold binding buffer. The amount of radioactivity in each well is quantitated with either gamma counting or liquid scintillation.

Human NPY5 receptor = target: T2, Human NPY5 receptor (Homo sapiens, UniProt Q15761); test: Human NPY5 receptor binding assay ([125I]PYY, membrane protein)
T2 sequence (Q15761 1-445): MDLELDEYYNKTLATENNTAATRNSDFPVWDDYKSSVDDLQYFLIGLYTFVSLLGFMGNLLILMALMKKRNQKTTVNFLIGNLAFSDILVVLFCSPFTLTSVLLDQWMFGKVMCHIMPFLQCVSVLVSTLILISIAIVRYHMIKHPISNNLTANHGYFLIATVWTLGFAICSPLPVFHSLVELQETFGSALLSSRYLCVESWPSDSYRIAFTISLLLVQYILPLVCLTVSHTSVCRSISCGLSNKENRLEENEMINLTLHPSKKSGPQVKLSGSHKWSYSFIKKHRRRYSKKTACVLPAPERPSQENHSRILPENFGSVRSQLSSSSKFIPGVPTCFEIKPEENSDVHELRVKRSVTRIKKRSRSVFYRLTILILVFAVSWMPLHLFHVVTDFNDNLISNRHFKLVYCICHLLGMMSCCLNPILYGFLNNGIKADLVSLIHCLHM
Experimental: C. Human and Rat NPY5 Receptor Binding Assays
Binding assays are performed on GF/C Millipore 96well plates pretreated with 0.02% polyethylenimine. The binding buffer is 25 mM Tris, 120 mM NaCl, 5 mM KCl, 1.2 mM KH2PO4, 2.5 mM CaCl2, 1.2 mM MgSO4, 0.1% BSA and 0.5 mg/ml bacitracin, pH 7.4. Samples consist of membrane protein, 75-100 pM [125I]PYY (porcine, NEN-DuPont) and drug dilution. Nonspecific binding is defined by 1 μM PYY. After a 2 hour incubation at room temperature with constant mixing, the samples are aspirated on a vacuum manifold, and rinsed with ice-cold binding buffer. The amount of radioactivity in each well is quantitated with either gamma counting or liquid scintillation.

[1] = [125I]PYY binding, read-out: hNPY5 IC50

SMILES | IC50 (Y2 receptor) [µM] | IC50 (Human NPY5 receptor; [1]) [µM] | IC50 (Human NPY5 receptor; hNPY5 IC50, [125I]PYY binding) [µM]
O=C(CN1CCN(c2cccc(Cl)c2)CC1)Nc1ccc(C(=O)c2ccccc2)cc1 [Compound 9] | > 5 | 0.64 | –
O=C(CN(CCO)c1ccccc1)Nc1ccc(C2CCCCC2)cc1 [Compound 14, N-(4-cyclohexyl-phenyl)-2-[(2-hydroxy-ethyl)-phenyl-amino]-acetamide] | > 5 | 1.8 | –
O=C(CN(CCO)c1ccccc1)Nc1ccc(C(=O)c2ccccc2)cc1 [Compound 17, N-(4-Benzoyl-phenyl)-2-[(2-hydroxy-ethyl)-phenyl-amino]-acetamide] | > 5 | 1.2 | –
O=C(CN1CC=C(c2ccc(Cl)cc2)CC1)Nc1ccc(C(=O)c2ccccc2)cc1 [Compound 18, N-(4-Benzoyl-phenyl)-2-[4-(4-chloro-phenyl)-3,6-dihydro-2H-pyridin-1-yl]-acetamide] | > 5 | 5.2 | –
O=C(CN1[C@@H](C(=O)O)CC[C@@H]1O)Nc1ccc(C(=O)c2ccccc2)cc1 [Compound 20, (5S,2R)-1-[(4-Benzoyl-phenylcarbamoyl)-methyl]-5-hydroxy-pyrrolidine-2-carboxylic acid] | > 5 | 7.6 | –
O=C(CN1CCC(N2CCCC2)CC1)Nc1ccc(C2CCCCC2)cc1 [Compound 29] | > 5 | 4.4 | –
CN(C)C1CCN(CC(=O)Nc2ccc(C3CCCCC3)cc2)CC1 [Compound 32, N-(4-Cyclohexyl-phenyl)-2-(4-dimethylamino-piperidin-1-yl)-acetamide] | > 5 | 3 | –
NC(=O)C1(NC2CCCCC2)CCN(CC(=O)Nc2ccc(C3CCCCC3)cc2)CC1 [Compound 35, 4-Cyclohexylamino-1-[(4-cyclohexyl-phenylcarbamoyl)-methyl]-piperidin-4-carboxylic acid amide] | > 5 | 0.63 | –
CN(C)C1(C(N)=O)CCN(CC(=O)Nc2ccc(C3CCCCC3)cc2)CC1 [Compound 36, 1-[(4-Cyclohexyl-phenylcarbamoyl)-methyl]-4-dimethylamino-piperidine-4-carboxylic acid amide] | > 5 | 0.71 | –
O=C(CN1CCC(CCCC2CCNCC2)CC1)Nc1ccc(C(=O)c2ccccc2)cc1 [Compound 37, N-(4-Benzoyl-phenyl)-2-[4-(3-piperidin-4-yl-propyl)-piperidin-1-yl]-acetamide] | > 5 | > 10 | –
O=C(CN1CCC(Cc2ccccc2)CC1)Nc1ccc(C(=O)c2ccccc2)cc1 [Compound 38, N-(4-Benzoyl-phenyl)-2-(4 benzyl-piperidin-1-yl)-acetamide] | > 5 | 8.5 | –
O=C(CN1CCC(N2CCCCC2)CC1)Nc1ccc(C(=O)c2ccccc2)cc1 [Compound 39, N-(4-Benzoyl-phenyl)-2-[1,4′]bipiperidinyl-1′-yl-acetamide] | > 5 | 2.1 | –
O=C(CN1CCC(O)(c2ccccc2)CC1)Nc1ccc(C(=O)c2ccccc2)cc1 [Compound 41, N-(4-Benzoyl-phenyl)-2-(4-hydroxy-4-phenyl-piperidin-1-yl)-acetamide] | > 5 | – | 0.06

Continued, in another order:

IC50 (Y2 receptor) [µM] | IC50 (Human NPY5 receptor; [1]) [µM] | SMILES | IC50 (Human NPY5 receptor; hNPY5 IC50, [125I]PYY binding) [µM]
> 5 | 0.19 | O=C(CN1CCN(c2ccccc2Cl)CC1)Nc1ccc(C2CCCCC2)cc1 [Compound 3, 2-[4-(2-Chloro-phenyl)-piperazin-1-yl]-N-(4-cyclohexyl-phenyl)-acetamide] | –
> 5 | 0.8 | O=C(CN1CCOCC1)Nc1ccc(C(=O)c2ccccc2)cc1 [Compound 6, N-(4-Benzoyl-phenyl)-2-morpholin-4-yl-acetamide] | –
> 5 | 1.6 | CCN(CC)CC(=O)Nc1ccc(C(=O)c2ccccc2)cc1 [Compound 7, N-(4-Benzoyl-phenyl)-2-diethylamino-acetamide] | –
> 5 | 0.96 | O=C(CN1CCN(c2ccccc2Cl)CC1)Nc1ccc(C(=O)c2ccccc2)cc1 [Compound 8, N-(4-Benzoyl-phenyl)-2-[4-(2-chloro-phenyl)-piperazin-1-yl]-acetamide] | –
> 5 | 2.9 | O=C(CN1CCN(c2ccc(Cl)cc2)CC1)Nc1ccc(C(=O)c2ccccc2)cc1 [Compound 10, N-(4-Benzoyl-phenyl)-2-[4-(4-chloro-phenyl)-piperazin-1-yl]-acetamide] | –
> 5 | 2.8 | O=C(CNCc1ccccc1)Nc1ccc(C2CCCCC2)cc1 [Compound 11, 2-Benzylamino-N-(4-cyclohexyl-phenyl)-acetamide] | –
> 5 | 9.1 | O=C(CN1CCN(Cc2ccccc2)CC1)Nc1ccc(C2CCCCC2)cc1 [Compound 13, 2-(4-Benzyl-piperazin-1-yl)-N-(4-cyclohexyl-phenyl)-acetamide] | –
> 5 | 9.6 | O=C(CN1CCN(Cc2ccccc2)CC1)Nc1ccc(C(=O)c2ccccc2)cc1 [Compound 16, N-(4-Benzoyl-phenyl)-2-(4-benzyl-piperazin-1-yl)-acetamide] | –
> 5 | 0.4 | O=C(CN1CCC(O)(Cc2ccccc2)CC1)Nc1ccc(C(=O)c2ccccc2)cc1 [Compound 19, N-(4-Benzoyl-phenyl)-2-(4-benzyl-4-hydroxy-piperidin-1-yl)-acetamide] | –
> 5 | 0.63 | CCN(CC(=O)Nc1ccc(C(=O)c2ccccc2)cc1)Cc1ccncc1 [Compound 21, N-(4-Benzoyl-phenyl)-2-(ethyl-pyridin-4-ylmethyl-amino)-acetamide] | –
> 5 | 9.9 | O=C(CN(c1ccccn1)c1ccccn1)Nc1ccc(C(=O)c2ccccc2)cc1 [Compound 22, N-(4-Benzoyl-phenyl)-2-(di-pyridin-2-yl-amino)-acetamide] | –
> 5 | > 10 | O=C(CN1CCC(CCCC2CCNCC2)CC1)Nc1ccc(C2CCCCC2)cc1 [Compound 23, N-(4-Cyclohexyl-phenyl)-2-[4-(3-piperidin-4-yl-propyl)-piperidin-1-yl]-acetamide] | –
> 5 | 2.9 | O=C(CN1CCC(N2CCCCC2)CC1)Nc1ccc(C2CCCCC2)cc1 [Compound 24, 2-[1,4′]Bipiperidinyl-1′-yl-N-(4-cyclohexyl-phenyl)-acetamide] | –
> 5 | 8.9 | O=C(CNCC1CCNCC1)Nc1ccc(C2CCCCC2)cc1 [Compound 28, N-(4-Cyclohexyl-phenyl)-2-[(piperidin-4-ylmethyl)-amino]-acetamide] | –
> 5 | 1.2 | NC(=O)C1(Nc2ccccc2)CCN(CC(=O)Nc2ccc(C3CCCCC3)cc2)CC1 [Compound 31, 1-[(4-Cyclohexyl-phenylcarbamoyl)-methyl]-4-phenylamino-piperidine-4-carboxylic acid amide] | –
> 5 | > 10 | CC1CCN(CC(=O)Nc2ccc(C3CCCCC3)cc2)CC1 [Compound 33, N-(4-Cyclohexyl-phenyl)-2-(4-methyl-piperidin-1-yl)-acetamide] | –
> 5 | 1.4 | CC1(C)CCN(CC(=O)Nc2ccc(C3CCCCC3)cc2)CC1 [Compound 34, N-(4-Cyclohexyl-phenyl)-2-(4,4-dimethyl-piperidin-1-yl)-acetamide] | –
> 5 | > 10 | O=C(CN1CCC(C(=O)O)CC1)Nc1ccc(C(=O)c2ccccc2)cc1 [Compound 40, 1-[(4-Benzoyl-phenylcarbamoyl)-methyl]-piperidine-4-carboxylic acid] | –
